This note sets out measurements from patent publication US20260103465A1, “GLYCOGEN SYNTHASE KINASE 3 INHIBITORS AND USES THEREOF” (The Broad Institute, Inc., priority 2023, published 2026).

Data set [1] in a line: Human liver microsomal stability. The note with it: human liver microsomes. The format is in vitro ADME. On the procedure: Stability of compound (5 μL of a 10 mM DMSO solution) in human liver microsomes was tested in duplicate by incubating compound at 1 μM for 60 minutes at 37° C. Compound level at 60 minutes was compared to level at 0 minutes, and percent remaining was calculated. Order by selecting Microsomal Stability in Prometheus, checking boxes for desired species. Assay Controls: microsomes with NADPH without compound-matrix interference. Microsomes plus compound without NADPH—non-enzymatic instability.
In general terms: Liver microsomes are a subcellular fraction often used to study metabolism.

Data set [2] addresses T1, GSK3a (GST-full length GSK3a) (Homo sapiens, UniProt P49840).
T1 construct: GST-full length GSK3a [SignalChem G08-10G]; purchased SignalChem G08-10G
Put plainly: GSK3a TR-FRET kinase inhibition assay. Type of data set: biochemical. Put shortly: (§1)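 IC50 derived from normalized 665/615 TR-FRET signal (Tb anti-pSer641 antibody, streptavidin-d2), read after EDTA stop. Reaction: 1 nM GST-full-length enzyme, 30 min compound pre-incubation, 100 min at ambient temperature in Tris pH 7.5 with 1% DMSO, 200 nM biotinylated primed glycogen synthase peptide, ATP 2 μM to 1 mM.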
On the technique in general: In TR-FRET formats the signal depends on donor and acceptor labels being close together.

In data set [3] the test system is MDR1-MDCK cell monolayers. Put plainly: MDR1/MDCK permeability assay. The format is in vitro ADME. Particulars: for MDCK Permeability (MDR1-MDCK); Mean; Papp(A-B) (10^−6 cm/s): A to B; for MDCK Permeability (MDR1-MDCK); Mean; Papp(B-A) (10^−6 cm/s): B to A; for MIDCK Permeability (MDR1-MDCK); Mean; P. Ratio(B-A/A-B) Efflux Ratio / MDCK Permeability (MDR1-MDCK); Mean; P. Ratio(B-A/A-B) Efflux Ratio: Papp B-A/A-B. The text has this: The MDR1/MDCK assay is run at WuXi and Absorption Systems. This assay is used to determine the blood-brain barrier (BBB) penetration potential of a test compound using MDR1-MDCK cell monolayers. Catalog number EA203.
• The percent recovery of the test compound from the Transwell® wells containing MDR1-MDCK cell monolayers • The apparent permeability (Papp) in both directions • The efflux ratio (Papp B to A)/(Papp A to B) • The blood-brain barrier penetration potential classification: • High when • Papp A to B≥3.0×10^−6 cm/s, and efflux<3.0 • Moderate when • Papp A to B≥3.0×10^−6 cm/s, and 10>efflux≥3.0 • Low when either • Papp A to B≥3.0×10^−6 cm/s, and […], or when • Papp A to B<[…].
• Test compound at 5 μM in HBSSg with maximum DMSO concentration not greater than 1%.
• Confluent monolayers of MDR1-MDCK cells, 7 to 11 days old.
• Receiver well with 1% BSA in modified Hanks buffer (HBSSg) • Apical and basolateral side at pH 7.4 • Dose two monolayers in each direction (N=2) • Dose apical side for (A to B) assessment • Dose basolateral side for (B to A) assessment • Sample both apical and basolateral sides at 120 minutes • Determine the concentrations of test compound using a generic LC-MS/MS method with a minimum 4 point calibration curve.
• The quality of the cell monolayer batch is verified using control compounds before monolayers are released for use • The quality of each monolayer used in the assay is verified by a TEER measurement and by calculating the Papp for a control compound.

The target of data set [4] is T2, GSK3b (GST-full length GSK3b) (Homo sapiens, UniProt P49841).
T2 construct: GST-full length GSK3b: [SignalChem G08-9G]; purchased SignalChem G08-9G
T2 sequence (P49841 whole entry): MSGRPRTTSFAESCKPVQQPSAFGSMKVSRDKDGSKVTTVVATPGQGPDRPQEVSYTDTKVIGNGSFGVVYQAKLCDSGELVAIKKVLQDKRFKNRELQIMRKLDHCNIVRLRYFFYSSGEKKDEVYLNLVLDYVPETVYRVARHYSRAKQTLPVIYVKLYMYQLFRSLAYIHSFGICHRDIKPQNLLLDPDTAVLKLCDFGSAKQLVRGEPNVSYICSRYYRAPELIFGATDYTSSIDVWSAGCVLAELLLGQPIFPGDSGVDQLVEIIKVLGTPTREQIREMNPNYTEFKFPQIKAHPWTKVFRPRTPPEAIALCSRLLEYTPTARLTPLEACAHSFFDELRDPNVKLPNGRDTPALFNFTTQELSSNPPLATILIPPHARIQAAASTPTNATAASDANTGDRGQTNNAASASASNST
Put plainly: GSK3b TR-FRET kinase inhibition assay. The format is biochemical. Put shortly: as §1

[5] abbreviates: 1 mM ATP, Table 3, read-out: GSK3a TR-FRET 1 mM ATP Average IC50.
The mark [6] stands for this setting: 1 mM ATP, Table 3, read-out: GSK3b TR-FRET 1 mM ATP Average IC50.

Where two headings read alike, the source gives them in different places. Some results are limits rather than exact numbers.

T1 sequence (P49840 whole entry): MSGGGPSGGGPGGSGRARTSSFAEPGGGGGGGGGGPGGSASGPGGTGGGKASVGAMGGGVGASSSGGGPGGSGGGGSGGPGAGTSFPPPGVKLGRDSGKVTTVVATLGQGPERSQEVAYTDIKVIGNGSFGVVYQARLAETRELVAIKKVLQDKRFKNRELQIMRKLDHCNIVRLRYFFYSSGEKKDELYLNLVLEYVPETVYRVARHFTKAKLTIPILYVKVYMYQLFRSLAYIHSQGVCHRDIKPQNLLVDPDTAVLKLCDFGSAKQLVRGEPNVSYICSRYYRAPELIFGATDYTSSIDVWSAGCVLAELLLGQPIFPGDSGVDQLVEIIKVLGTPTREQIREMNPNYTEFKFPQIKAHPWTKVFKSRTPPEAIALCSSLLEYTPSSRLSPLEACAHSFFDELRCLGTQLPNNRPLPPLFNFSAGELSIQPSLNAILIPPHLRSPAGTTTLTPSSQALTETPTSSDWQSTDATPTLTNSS

Take `CC(C)(C)Cc1ccnc2c1C(C)(c1ccccc1)C1=C(CC(C)(C)CC1=O)N2` (single isomer, unassigned) [Compound 130B]: in data set [1] (Table 3), the “Microsome Stability (Human) (DMPK_BIIB); Mean; in vitro t1/2” value (“Microsome Stability (Human) (DMPK_BIIB)” for short) worked out at 0.53 min. Further, the IC50 was in the range of 100 to 1000 nM in data set [2] (10 μM ATP, read-out: GSK3a 10 μM ATP Average IC50); 1000 to 5000 nM in data set [2] (100 μM ATP, read-out: GSK3a 100 μM ATP Average IC50); 5000 to 20000 nM in data set [2] (setting [5]); 100 to 1000 nM in data set [4] (10 μM ATP, read-out: GSK3b 10 μM ATP Average IC50); 100 to 1000 nM in data set [4] (100 μM ATP, read-out: GSK3b 100 μM ATP Average IC50); 5000 to 20000 nM in data set [4] (setting [6]). Besides, the “MDCK Permeability (MDR1-MDCK); Mean; Papp(A-B) (10^−6 cm/s)” value in data set [3] (Table 3) is listed as 1.3 10^−6 cm/s. Further, in data set [3] (Table 3), the “MDCK Permeability (MDR1-MDCK); Mean; Papp(B-A) (10^−6 cm/s)” value was 0.75 10^−6 cm/s. Further, in data set [3] (Table 3), the “MIDCK Permeability (MDR1-MDCK); Mean; P. Ratio(B-A/A-B) Efflux Ratio” value is listed as 0.60.

For the compound `CC1(C)CC(=O)C2=C(C1)Nc1ncc(F)cc1C2(C)c1cccc(S(C)(=O)=O)c1` (single isomer, unassigned) [Compound 139A], the IC50 in data set [2] (setting [5]) was no more than 100 nM. Moreover, in data set [3] (Table 3), the “MDCK Permeability (MDR1-MDCK); Mean; Papp(A-B) (10^−6 cm/s)” value is 0.52 10^−6 cm/s, the “MDCK Permeability (MDR1-MDCK); Mean; Papp(B-A) (10^−6 cm/s)” value is given as 75 10^−6 cm/s and the “MIDCK Permeability (MDR1-MDCK); Mean; P. Ratio(B-A/A-B) Efflux Ratio” value was found to be 144. In addition, the IC50 in data set [4] (setting [6]) was no more than 100 nM.

Regarding `CCC1(c2ccccc2)C2=C(CC(C)(C)CC2=O)Nc2ncc(C(F)(F)F)cc21` (single isomer, unassigned) [Compound 133B], the “Microsome Stability (Human) (DMPK_BIIB)” value in data set [1] (Table 4) was determined as 73 min. In data set [3] (Table 4), the “MDCK Permeability (MDR1-MDCK); Mean; Papp(A-B) (10^−6 cm/s)” value is given as 11 10^−6 cm/s, the “MDCK Permeability (MDR1-MDCK); Mean; Papp(B-A) (10^−6 cm/s)” value is given as 16 10^−6 cm/s and the “MDCK Permeability (MDR1-MDCK); Mean; P. Ratio(B-A/A-B) Efflux Ratio” value came out at 1.5.

`CC1(C)CC(=O)C2=C(C1)Nc1ncc(F)c(C#N)c1C2(C)c1ccccc1` (single isomer, unassigned) [Compound 121A]: the IC50 in data set [2] (setting [5]) is no more than 100 nM. In addition, in data set [3] (Table 3), the “MDCK Permeability (MDR1-MDCK); Mean; Papp(A-B) (10^−6 cm/s)” value is recorded as 22 10^−6 cm/s, the “MDCK Permeability (MDR1-MDCK); Mean; Papp(B-A) (10^−6 cm/s)” value is 63 10^−6 cm/s and the “MIDCK Permeability (MDR1-MDCK); Mean; P. Ratio(B-A/A-B) Efflux Ratio” value is recorded as 2.9. Moreover, the IC50 in data set [4] (setting [6]) was no more than 100 nM.

As for `CCC1(c2ccccc2)C2=C(CC3(CCC3)CC2=O)Nc2ncccc21` (single isomer, unassigned) [Compound 110B], the “Microsome Stability (Human) (DMPK_BIIB)” value in data set [1] (Table 4) is 1.7 min. For the same compound, in data set [3] (Table 4), the “MDCK Permeability (MDR1-MDCK); Mean; Papp(A-B) (10^−6 cm/s)” value was 13 10^−6 cm/s, the “MDCK Permeability (MDR1-MDCK); Mean; Papp(B-A) (10^−6 cm/s)” value is given as 27 10^−6 cm/s and the “MDCK Permeability (MDR1-MDCK); Mean; P. Ratio(B-A/A-B) Efflux Ratio” value amounted to 2.1.

As to `CC1(C)CC(=O)C2=C(C1)Nc1nccc(C#N)c1C2(C)c1ccccc1` (single isomer, unassigned) [Compound 108A], the IC50 in data set [2] (setting [5]) was 100 to 1000 nM. Besides, in data set [3] (Table 3), the “MDCK Permeability (MDR1-MDCK); Mean; Papp(A-B) (10^−6 cm/s)” value was 18 10^−6 cm/s, the “MDCK Permeability (MDR1-MDCK); Mean; Papp(B-A) (10^−6 cm/s)” value is recorded as 56 10^−6 cm/s and the “MIDCK Permeability (MDR1-MDCK); Mean; P. Ratio(B-A/A-B) Efflux Ratio” value is reported as 3.2. In addition, the IC50 in data set [4] (setting [6]) lay in the range of 100 to 1000 nM.

Regarding `CCC1(c2ccccc2)C2=C(CC(C)(C)CC2=O)Nc2ncc(F)cc21` (single isomer, unassigned) [Compound 114B], in data set [1] (Table 4), the “Microsome Stability (Human) (DMPK_BIIB)” value is recorded as 1.7 min. In data set [3] (Table 4), the “MDCK Permeability (MDR1-MDCK); Mean; Papp(A-B) (10^−6 cm/s)” value is listed as 12 10^−6 cm/s, the “MDCK Permeability (MDR1-MDCK); Mean; Papp(B-A) (10^−6 cm/s)” value is 24 10^−6 cm/s and the “MDCK Permeability (MDR1-MDCK); Mean; P. Ratio(B-A/A-B) Efflux Ratio” value came to 2.1.

Consider `CC1(C)CC(=O)C2=C(C1)Nc1ncccc1C2(C)c1cccc(-c2ccncc2CC(F)(F)F)c1` (single isomer, unassigned) [Compound 163A], for which the IC50 in data set [2] (setting [5]) and in data set [4] (setting [6]) was 100 to 1000 nM each time.

What is called IC50 is the concentration that gives 50% inhibition.
